What is called IC50 is the point on the concentration scale where inhibition reaches its midpoint. Higher therefore signals weaker potency. For orientation: CC50 means the concentration at which the toxic effect on the cells reaches its halfway point. High values mean better tolerance by the cells, low ones harm at low concentration.

This note sets out measurements from ChEMBL document CHEMBL2413026, “Synthesis and biological evaluation against Leishmania amazonensis of a series of alkyl-substituted benzophenones” (Bioorg Med Chem, 2013).

The test system of data set [1] is Leishmania amazonensis. The experiment in a line: Leishmanicidal activity against promastigote form of Leishmania amazonensis MHOM/BR/71973/M2269 after 72 hrs by cell counting. Type of data set: functional, organism-based. The following applies: MHOM/BR/71973/M2269, 72 h.
The nature of data set [2]: Cytotoxicity against mouse peritoneal macrophages after 72 hrs by MTT assay. Type of data set: cell-based, Peritoneal macrophage cell.
Data set [3] in a line: Selectivity index, ratio of CC50 for mouse peritoneal macrophages to IC50 for promastigote form of Leishmania amazonensis MHOM/BR/71973/M2269. Type of data set: functional.
Data set [4] relates to Leishmania amazonensis. The experiment in a line: Ratio of 4,4'-dihydroxybenzophenone IC50 to compound IC50 for spromastigote forms of Leishmania amazonensis MHOM/BR/71973/M2269 after 72 hrs by cell counting. Type of data set: functional.

Converted amounts (≈) assume the structure as drawn. Bounds are passed on as bounds.

Regarding `O=C(c1ccccc1)c1ccc(O)cc1`, the IC50 in data set [1] is 40.9 µg/mL (≈ 206 µM). Moreover, the half-maximal cytotoxic concentration (CC50) at 72 h in data set [2] was over 160 µg/mL.
In the same order, the values of `O=C(c1ccc(O)cc1)c1ccc(O)cc1` are 121 µg/mL (≈ 567 µM) and over 160 µg/mL.
The like results for `COc1ccc(C(=O)c2ccccc2)cc1` were, in that order, 5.05 µg/mL (≈ 23.8 µM) and 28 µg/mL (≈ 132 µM).
The like results for `CCCCOc1ccc(C(=O)c2ccccc2)c(O)c1` were, in that order, 9.8 µg/mL (≈ 36.3 µM) and 40.6 µg/mL (≈ 150 µM).
`CC(C)=CCOc1ccc(C(=O)c2ccccc2)c(O)c1`: in data set [1], the IC50 was determined as 7.05 µg/mL (≈ 25 µM). In addition, the “Ratio CC50/IC50” value in data set [3] is 19.86. This compound came in with a CC50 at 72 h in data set [2] of 140 µg/mL (≈ 496 µM).
Regarding `CCCCOc1ccc(C(=O)c2ccccc2)cc1`, the IC50 in data set [1] came to 8.56 µg/mL (≈ 33.7 µM). The same compound came in with a CC50 at 72 h in data set [2] of 28.9 µg/mL (≈ 114 µM).
In the same order, the values of `CC(C)=CCOc1ccc(C(=O)c2ccccc2)cc1` are 7.82 µg/mL (≈ 29.4 µM) and 87.1 µg/mL (≈ 327 µM).
In data set [1], `CCCCOc1ccc(C(=O)c2ccc(OCCCC)cc2)cc1` had an IC50 of 23.8 µg/mL (≈ 72.9 µM). Besides, the CC50 at 72 h in data set [2] was over 160 µg/mL.
In data set [1], `CC(C)=CCOc1ccc(C(=O)c2ccc(OCC=C(C)C)cc2)cc1` returned an IC50 of 5.94 µg/mL (≈ 16.9 µM). Also, the “Ratio CC50/IC50” value in data set [3] turned out to be 26.93. Also, the cytotoxic concentration (CC50) at 72 h in data set [2] was over 160 µg/mL. Besides, in data set [4], the “Ratio IC50” value is 250.
Turning to `O=C(c1ccccc1)c1ccc(O)cc1O` [2,4-DIHYDROXYBENZOPHENONE], the half-inhibitory concentration (IC50) in data set [1] was 29 µg/mL (≈ 135 µM). In data set [2], the 50% cytotoxic concentration (CC50) at 72 h was over 160 µg/mL.
As to `C[C@@H]1[C@H](O)[C@@H](C)/C=C/C=C/C=C/C=C/C=C/C=C/C=C/[C@H](O[C@@H]2O[C@H](C)[C@@H](O)[C@H](N)[C@@H]2O)C[C@@H]2O[C@](O)(C[C@@H](O)C[C@@H](O)[C@H](O)CC[C@@H](O)C[C@@H](O)CC(=O)O[C@H]1C)C[C@H](O)[C@H]2C(=O)O` [AMPHOTERICIN B], inhibition in data set [1] was half-maximal at 4.7 µg/mL (≈ 5.09 µM) (IC50). In addition, in data set [3], the “Ratio CC50/IC50” value was 5.32. In data set [2], this compound registered a CC50 at 72 h of 25 µg/mL (≈ 27.1 µM).
For the compound `COc1ccc(C(=O)c2ccccc2)c(O)c1` [OXYBENZONE], in data set [1], the 50% inhibitory concentration (IC50) came to 4.9 µg/mL (≈ 21.5 µM). Further, the CC50 at 72 h in data set [2] stood at 24.6 µg/mL (≈ 108 µM).
With `N=C(N)c1ccc(OCCCCCOc2ccc(C(=N)N)cc2)cc1` [PENTAMIDINE], in data set [1], the IC50 stood at 0.44 µg/mL (≈ 1.29 µM). Also, in data set [3], the “Ratio CC50/IC50” value stood at 8.68. In addition, in data set [2], the midpoint of cytotoxicity, the CC50 at 72 h, lay at 3.82 µg/mL (≈ 11.2 µM).
